Source: US11999745B2, “Pharmaceutical compounds” (Heptares Therapeutics Limited, priority 2020, dated 2024)

Legend:
Format in all cases: cell-based
[1] = molecular target: T1, human muscarinic M4 receptor (Homo sapiens, UniProt P08173); assay: Alphascreen Surefire phospho-ERK1/2 functional assay, M4; details: for Emax: CHO cells stably expressing human M4, read-out: % Emax cf. ACh, M4
T1 construct: expressed in transfected cells
T1 sequence (P08173 1-479): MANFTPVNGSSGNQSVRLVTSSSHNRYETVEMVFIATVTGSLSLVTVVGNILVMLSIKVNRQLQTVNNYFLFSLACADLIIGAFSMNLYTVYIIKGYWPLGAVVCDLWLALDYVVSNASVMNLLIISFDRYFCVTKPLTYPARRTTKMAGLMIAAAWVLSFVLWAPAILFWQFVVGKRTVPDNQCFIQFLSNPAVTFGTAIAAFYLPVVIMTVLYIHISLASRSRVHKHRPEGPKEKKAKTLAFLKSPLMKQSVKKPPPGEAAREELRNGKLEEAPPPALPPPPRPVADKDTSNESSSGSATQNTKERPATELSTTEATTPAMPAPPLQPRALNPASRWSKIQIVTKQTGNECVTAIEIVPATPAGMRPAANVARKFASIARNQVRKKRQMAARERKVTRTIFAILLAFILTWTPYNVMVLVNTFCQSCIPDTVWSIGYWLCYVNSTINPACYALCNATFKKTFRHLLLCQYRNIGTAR
Procedure: (§1) ERK1/2 phosphorylation is a downstream consequence of both Gq/11 and Gi/o protein coupled receptor activation, making it highly suitable for the assessment of M1, M3 (Gq/11 coupled) and M2, M4 receptors (Gi/o coupled), rather than using different assay formats for different receptor subtypes. CHO cells stably expressing the human muscarinic M1, M2, M3 or M4 receptor were plated (25K/well) onto 96-well tissue culture plates in MEM-alpha+10% dialysed FBS. Once adhered, cells were serum-starved overnight. Agonist stimulation was performed by the addition of 5 μL agonist to the cells for 5 min (37° C.). Media was removed and 50 μL of lysis buffer added.

[2] = molecular target: T2, human muscarinic M3 receptor (Homo sapiens, UniProt P20309); assay: Alphascreen Surefire phospho-ERK1/2 functional assay, M3; details: for Emax: CHO cells stably expressing human M3, read-out: % Emax cf. ACh, M3
T2 construct: expressed in transfected cells
T2 sequence (P20309 whole entry): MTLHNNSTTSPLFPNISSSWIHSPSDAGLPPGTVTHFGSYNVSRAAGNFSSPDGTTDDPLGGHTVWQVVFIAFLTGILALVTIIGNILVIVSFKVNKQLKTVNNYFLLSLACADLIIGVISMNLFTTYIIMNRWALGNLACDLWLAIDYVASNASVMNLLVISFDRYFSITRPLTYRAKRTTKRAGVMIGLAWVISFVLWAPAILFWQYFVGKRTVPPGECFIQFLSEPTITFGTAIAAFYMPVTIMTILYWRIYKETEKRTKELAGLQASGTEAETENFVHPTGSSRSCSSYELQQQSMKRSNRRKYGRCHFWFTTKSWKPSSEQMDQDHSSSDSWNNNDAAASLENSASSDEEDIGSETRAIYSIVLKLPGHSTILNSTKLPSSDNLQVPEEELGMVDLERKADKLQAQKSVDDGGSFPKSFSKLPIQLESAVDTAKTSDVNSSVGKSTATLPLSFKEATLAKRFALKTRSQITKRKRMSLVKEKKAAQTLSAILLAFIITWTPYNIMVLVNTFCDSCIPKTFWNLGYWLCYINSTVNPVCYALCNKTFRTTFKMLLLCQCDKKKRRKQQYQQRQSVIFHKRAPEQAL
Procedure: as §1

[3] = molecular target: T3, human muscarinic M2 receptor (Homo sapiens, UniProt P08172); assay: Alphascreen Surefire phospho-ERK1/2 functional assay, M2
T3 construct: expressed in transfected cells
T3 sequence (P08172 1-466): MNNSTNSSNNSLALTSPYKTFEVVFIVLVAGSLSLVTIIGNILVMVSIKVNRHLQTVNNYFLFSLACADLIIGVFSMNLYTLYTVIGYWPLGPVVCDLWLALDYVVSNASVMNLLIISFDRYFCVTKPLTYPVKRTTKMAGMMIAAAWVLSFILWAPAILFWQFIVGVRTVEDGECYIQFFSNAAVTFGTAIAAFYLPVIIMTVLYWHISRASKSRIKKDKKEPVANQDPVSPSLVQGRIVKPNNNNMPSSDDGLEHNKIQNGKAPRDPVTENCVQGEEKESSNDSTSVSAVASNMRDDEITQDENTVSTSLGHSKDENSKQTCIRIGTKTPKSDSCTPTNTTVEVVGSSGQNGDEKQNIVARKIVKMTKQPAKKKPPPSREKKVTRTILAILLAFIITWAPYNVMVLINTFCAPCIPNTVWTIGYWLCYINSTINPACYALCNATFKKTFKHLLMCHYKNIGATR
Procedure: as §1

[4] = molecular target: T4, human muscarinic M1 receptor (Homo sapiens, UniProt P11229); assay: Alphascreen Surefire phospho-ERK1/2 functional assay, M1; details: CHO cells stably expressing human M1, phospho-ERK1/2
T4 construct: expressed in transfected cells
T4 sequence (P11229 1-460): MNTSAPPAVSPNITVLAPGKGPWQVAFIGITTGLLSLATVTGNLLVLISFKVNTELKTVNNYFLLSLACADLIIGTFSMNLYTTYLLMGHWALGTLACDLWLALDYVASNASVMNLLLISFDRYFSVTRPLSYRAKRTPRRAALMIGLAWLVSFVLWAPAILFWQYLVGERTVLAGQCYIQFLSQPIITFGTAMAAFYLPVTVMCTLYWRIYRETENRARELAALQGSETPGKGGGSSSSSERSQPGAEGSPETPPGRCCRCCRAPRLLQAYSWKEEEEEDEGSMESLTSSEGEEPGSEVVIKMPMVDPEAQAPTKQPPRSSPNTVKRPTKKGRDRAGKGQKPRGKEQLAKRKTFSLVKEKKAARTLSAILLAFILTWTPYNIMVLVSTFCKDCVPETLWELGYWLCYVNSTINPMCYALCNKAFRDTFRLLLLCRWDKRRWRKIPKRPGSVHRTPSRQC
Procedure: as §1

| SMILES | Emax [1] | Emax [2] | EC50 ([1]; CHO cells stably expressing human M4, read-out: pEC50 M4 (converted)) | Emax ([3]; CHO cells stably expressing human M2, read-out: % Emax cf. ACh, M2) | EC50 ([3]; CHO cells stably expressing human M2, read-out: pEC50 M2 (converted)) | pEC50 M1 [4] | Emax ([4]; read-out: % Emax cf. ACh, M1) | EC50 ([2]; CHO cells stably expressing human M3, read-out: pEC50 M3 (converted)) |
| --- | --- | --- | --- | --- | --- | --- | --- | --- |
| CC(=O)OCC[N+](C)(C)C [Acetylcholine, reference compound] | 108% | 102% |  |  |  |  |  |  |
| CC(C)(C)NC(=O)C1CCN([C@H]2C[C@H]3CC[C@@H](C2)N3c2nc(C(F)(F)F)no2)CC1.Cl [Example 1-1, N-(tert-butyl)-1-((1R,3r,5S)-8-(3-(trifluoromethyl)-1,2,4-oxadiazol-5-yl)-8-azabicyclo[3.2.1]octan-3-yl)piperidine-4-carboxamide hydrochloride] | 32% | 3% | 0.12 µM | 7% | > 20 µM | 7.17 | 92% | > 20 µM |
